Assay results: ChEMBL document CHEMBL1139057, “Rotenoids and flavonoids with anti-invasion of HT1080, anti-proliferation of U937, and differentiation-inducing activity in HL-60 from Erycibe expansa” (Bioorg Med Chem, 2007)
Calls of active or inactive are those of the source. No cut-off for these calls is given here.

Experiments:
HT-1080 [1] = assay: Inhibition of invasion of human HT1080 cells at 1 uM after 24 hrs; format: functional; details: HT-1080, 24 h
HT-1080 [2] = assay: Inhibition of invasion of human HT1080 cells at 3 uM after 24 hrs; format: functional; details: HT-1080, 24 h
HT-1080 [3] = assay: Inhibition of invasion of human HT1080 cells at 10 uM after 24 hrs; format: functional; details: HT-1080, 24 h
HT-1080 [4] = assay: Inhibition of invasion of human HT1080 cells at 30 uM after 24 hrs; format: functional; details: HT-1080, 24 h
HT-1080 [5] = assay: Antiproliferative activity against human HT1080 cells at 1 uM after 24 hrs by MTT assay; format: functional; details: HT-1080, 24 h
HT-1080 [6] = assay: Antiproliferative activity against human HT1080 cells at 3 uM after 24 hrs by MTT assay; format: functional; details: HT-1080, 24 h
HT-1080 [7] = assay: Antiproliferative activity against human HT1080 cells at 10 uM after 24 hrs by MTT assay; format: functional; details: HT-1080, 24 h
HT-1080 [8] = assay: Antiproliferative activity against human HT1080 cells at 30 uM after 24 hrs by MTT assay; format: functional; details: HT-1080, 24 h
HT-1080 [9] = assay: Antiproliferative activity against human HT1080 cells at 1 uM after 48 hrs by MTT assay; format: functional; details: HT-1080, 48 h
HT-1080 [10] = assay: Antiproliferative activity against human HT1080 cells at 3 uM after 48 hrs by MTT assay; format: functional; details: HT-1080, 48 h
HT-1080 [11] = assay: Antiproliferative activity against human HT1080 cells at 10 uM after 48 hrs by MTT assay; format: functional; details: HT-1080, 48 h
HT-1080 [12] = assay: Antiproliferative activity against human HT1080 cells at 30 uM after 48 hrs by MTT assay; format: functional; details: HT-1080, 48 h
HT-1080 [13] = assay: Antiproliferative activity against human HT1080 cells at 1 uM after 72 hrs by MTT assay; format: functional; details: HT-1080, 72 h
HT-1080 [14] = assay: Antiproliferative activity against human HT1080 cells at 3 uM after 72 hrs by MTT assay; format: functional; details: HT-1080, 72 h
HT-1080 [15] = assay: Antiproliferative activity against human HT1080 cells at 10 uM after 72 hrs by MTT assay; format: functional; details: HT-1080, 72 h
HT-1080 [16] = assay: Antiproliferative activity against human HT1080 cells at 30 uM after 72 hrs by MTT assay; format: functional; details: HT-1080, 72 h
HT-1080 [17] = assay: Antiproliferative activity against human HT1080 cells at 1 uM after 24 hrs by calcein-AM assay; format: functional; details: HT-1080, 24 h
HT-1080 [18] = assay: Antiproliferative activity against human HT1080 cells at 3 uM after 24 hrs by calcein-AM assay; format: functional; details: HT-1080, 24 h
HT-1080 [19] = assay: Antiproliferative activity against human HT1080 cells at 10 uM after 24 hrs by calcein-AM assay; format: functional; details: HT-1080, 24 h
HT-1080 [20] = assay: Antiproliferative activity against human HT1080 cells at 30 uM after 24 hrs by calcein-AM assay; format: functional; details: HT-1080, 24 h
HT-1080 [21] = assay: Antiproliferative activity against human HT1080 cells at 1 uM after 48 hrs by calcein-AM assay; format: functional; details: HT-1080, 48 h
HT-1080 [22] = assay: Antiproliferative activity against human HT1080 cells at 3 uM after 48 hrs by calcein-AM assay; format: functional; details: HT-1080, 48 h
HT-1080 [23] = assay: Antiproliferative activity against human HT1080 cells at 10 uM after 48 hrs by calcein-AM assay; format: functional; details: HT-1080, 48 h
HT-1080 [24] = assay: Antiproliferative activity against human HT1080 cells at 30 uM after 48 hrs by calcein-AM assay; format: functional; details: HT-1080, 48 h
HT-1080 [25] = assay: Antiproliferative activity against human HT1080 cells at 1 uM after 72 hrs by calcein-AM assay; format: functional; details: HT-1080, 72 h
HT-1080 [26] = assay: Antiproliferative activity against human HT1080 cells at 3 uM after 72 hrs by calcein-AM assay; format: functional; details: HT-1080, 72 h
HT-1080 [27] = assay: Antiproliferative activity against human HT1080 cells at 10 uM after 72 hrs by calcein-AM assay; format: functional; details: HT-1080, 72 h
HT-1080 [28] = assay: Antiproliferative activity against human HT1080 cells at 30 uM after 72 hrs by calcein-AM assay; format: functional; details: HT-1080, 72 h
HT-1080 [29] = assay: Inhibition of proMMP2 production in human HT1080 cells by gelatin zymography analysis; format: functional, cell-based
HT-1080 [30] = assay: Inhibition of proMMP9 production in human HT1080 cells by gelatin zymography analysis; format: functional, cell-based
HL-60 [31] = assay: […] human HL60 cells assessed NBT positive cells at 10 uM after 72 hrs by NBT reduction test; format: functional
HL-60 [32] = assay: […] human HL60 cells assessed NBT positive cells at 30 uM after 72 hrs by NBT reduction test; format: functional
HL-60 [33] = assay: Induction of human HL60 cells differentiation assessed as number of cells at 10 uM after 72 hrs by NBT reduction test; format: functional
HL-60 [34] = assay: Induction of human HL60 cells differentiation assessed as number of cells at 20 uM after 72 hrs by NBT reduction test; format: functional
U-937 [35] = assay: Antiproliferative activity against human U937 cells after 24 hrs by WST-8 assay; format: functional, cell-based; details: U-937, 24 h
U-937 [36] = assay: Antiproliferative activity against human U937 cells after 48 hrs by WST-8 assay; format: functional, cell-based; details: U-937, 48 h
U-937 [37] = assay: Antiproliferative activity against human U937 cells after 72 hrs by WST-8 assay; format: functional, cell-based; details: U-937, 72 h

Row | SMILES | inhibition at 3 µM (HT-1080 [2]) [%] | inhibition at 10 µM (HT-1080 [3]) [%] | inhibition at 30 µM (HT-1080 [4]) [%] | inhibition at 3 µM (HT-1080 [6]) [%] | inhibition at 10 µM (HT-1080 [7]) [%] | inhibition at 30 µM (HT-1080 [8]) [%] | inhibition at 3 µM (HT-1080 [10]) [%] | inhibition at 10 µM (HT-1080 [11]) [%] | inhibition at 30 µM (HT-1080 [12]) [%] | inhibition at 3 µM (HT-1080 [14]) [%] | inhibition at 10 µM (HT-1080 [15]) [%] | inhibition at 30 µM (HT-1080 [16]) [%] | inhibition at 3 µM (HT-1080 [18]) [%] | inhibition at 10 µM (HT-1080 [19]) [%] | inhibition at 30 µM (HT-1080 [20]) [%] | inhibition at 3 µM (HT-1080 [22]) [%] | inhibition at 10 µM (HT-1080 [23]) [%] | inhibition at 30 µM (HT-1080 [24]) [%] | inhibition at 3 µM (HT-1080 [26]) [%] | inhibition at 10 µM (HT-1080 [27]) [%] | further results
1 | COc1cc2c(cc1OC)[C@@H]1C(=O)c3ccc4c(c3O[C@@H]1CO2)C=CC(C)(C)O4 [DEGUELIN] | 50.2 | 58 | 57.9 | 8.6 | 10.7 | 10.9 | 96.5 | 97.7 | 97.3 | 98.7 | 98.8 | 98.9 | -0.9 | -1.8 | 17 | 44.2 | 51 | 40.4 | 98.5 | 98.5 | inhibition at 1 µM (HT-1080 [1]): 38%; inhibition at 1 µM (HT-1080 [5]): 6.3%; inhibition at 1 µM (HT-1080 [9]): 78.3%; inhibition at 1 µM (HT-1080 [13]): 98.2%; inhibition at 1 µM (HT-1080 [17]): 10.5%; inhibition at 1 µM (HT-1080 [21]): 35.2%; inhibition at 1 µM (HT-1080 [25]): 95.3%; inhibition at 30 µM (HT-1080 [28]): 98.5%; Activity (HT-1080 [29]): Active; Activity (HT-1080 [30]): Active; Activity (HL-60 [31]): 12.5%; Activity (HL-60 [32]): 22.2%; Activity (HL-60 [33]): 2.1 10^5/ml; Activity (HL-60 [34]): 0.3 10^5/ml; IC50 (U-937 [35]): 42 µM; IC50 (U-937 [36]): 16 µM; IC50 (U-937 [37]): 5.8 µM
2 | O=c1c(-c2ccc(O)cc2)coc2cc(O)cc(O)c12 [GENISTEIN] | 5.5 | 35.1 | 43.2 | -6.2 | -1.2 | 12.5 | 3.8 | 9.3 | 25.3 | -0.9 | 1.7 | 22.5 | 2.8 | 6.1 | 17.3 | 2 | 5.1 | 17.6 | 1.5 | 6 | inhibition at 30 µM (HT-1080 [28]): 17.2%; Activity (HL-60 [31]): 4.1%; Activity (HL-60 [32]): 11.2%; Activity (HL-60 [33]): 8.3 10^5/ml; Activity (HL-60 [34]): 5.3 10^5/ml; IC50 (U-937 [35]): > 100 µM; IC50 (U-937 [36]): 72 µM; IC50 (U-937 [37]): 48 µM
3 | C=C(C)[C@H]1Cc2c(ccc3c2O[C@@H]2COc4cc(OC)c(OC)cc4[C@]2(O)C3=O)O1 [ROTENOLONE] | 30.6 | 64.9 | 54.6 | 0.8 | 2.4 | 5.5 | 96.9 | 96.4 | 96 | 98.7 | 98.3 | 98.5 | 21.8 | 24.4 | 29.2 | 50.6 | 47.6 | 53.6 | 97.1 | 94.9 | inhibition at 1 µM (HT-1080 [1]): 3.3%; inhibition at 1 µM (HT-1080 [5]): -2%; inhibition at 1 µM (HT-1080 [9]): 95.8%; inhibition at 1 µM (HT-1080 [13]): 98.3%; inhibition at 1 µM (HT-1080 [17]): 17.2%; inhibition at 1 µM (HT-1080 [21]): 52.2%; inhibition at 1 µM (HT-1080 [25]): 97.3%; inhibition at 30 µM (HT-1080 [28]): 95%; Activity (HT-1080 [29]): Active; Activity (HT-1080 [30]): Active; IC50 (U-937 [35]): 3.6 µM; IC50 (U-937 [36]): 0.07 µM; IC50 (U-937 [37]): 0.09 µM
4 | C=C(C)[C@H]1Cc2c(ccc3c2O[C@@H]2COc4cc(OC)c(OC)cc4[C@@H]2C3=O)O1 [ROTENONE] | 19.6 | 53.7 | 51.6 | 9.9 | 9.5 | 0.7 | 97.5 | 97.3 | 96.9 | 98.5 | 98.4 | 97.8 | 17.1 | 23 | 26.8 | 44.2 | 51 | 40.4 | 95.3 | 91.4 | inhibition at 1 µM (HT-1080 [1]): 0.6%; inhibition at 1 µM (HT-1080 [5]): 9.4%; inhibition at 1 µM (HT-1080 [9]): 95.9%; inhibition at 1 µM (HT-1080 [13]): 98.6%; inhibition at 1 µM (HT-1080 [17]): 16.2%; inhibition at 1 µM (HT-1080 [21]): 35.2%; inhibition at 1 µM (HT-1080 [25]): 97.4%; inhibition at 30 µM (HT-1080 [28]): 93.4%; Activity (HT-1080 [29]): Active; Activity (HT-1080 [30]): Active; IC50 (U-937 [35]): 13 µM; IC50 (U-937 [36]): 0.2 µM; IC50 (U-937 [37]): 0.07 µM
5 | COc1cc2c(cc1OC)[C@]1(O)C(=O)c3ccc4c(c3O[C@@H]1CO2)C=CC(C)(C)O4 [TEPHROSIN] | 29.6 | 49.2 | 67.6 | 0.8 | 2 | 3.8 | 97.9 | 98.1 | 98 | 98.7 | 98.9 | 98.6 | 7 | 5.9 | 13.7 | 63 | 67.7 | 83.2 | 97.9 | 98.2 | inhibition at 1 µM (HT-1080 [1]): -9.3%; inhibition at 1 µM (HT-1080 [5]): -1.9%; inhibition at 1 µM (HT-1080 [9]): 96.4%; inhibition at 1 µM (HT-1080 [13]): 98.7%; inhibition at 1 µM (HT-1080 [17]): 5%; inhibition at 1 µM (HT-1080 [21]): 54%; inhibition at 1 µM (HT-1080 [25]): 97.8%; inhibition at 30 µM (HT-1080 [28]): 98.3%; Activity (HT-1080 [29]): Active; Activity (HT-1080 [30]): Active; Activity (HL-60 [31]): 5.9%; Activity (HL-60 [32]): 8.4%; Activity (HL-60 [33]): 4.5 10^5/ml; Activity (HL-60 [34]): 1 10^5/ml; IC50 (U-937 [35]): 30 µM; IC50 (U-937 [36]): 23 µM; IC50 (U-937 [37]): 7.3 µM
